# Laboratory results reported in patent EP0240391A1, “Silver salt derived from naphthyridine, useful as a bactericide, process for its preparation and compositions containing it” (EDMOND PHARMA S.R.L., priority 1986, dated 1987).
# Experiments:
# [1] = system: Candida albicans; test: In vitro antifungal activity, MIC (CMI) by agar dilution method; format: cell-based; details: for nombre de souches sensibles aux concentrations suivantes (en µg/ml): 5 strains
# Text: (§1) Pour l'évaluation des activités antibactérienne et antifongique ont été testées 24 souches de bactéries et 11 de champignons isolées de matériel pathologique humain récent ou provenant de collections internationales, ainsi subdivisées :
# (§2) Pour l'activité in vitro on a déterminé la CMI par la méthode des dilutions (milieu agar) selon la technique classique.
# (§3) La solution mère des produits à tester (composé de formule I et acide libre de départ) a été préparée par dissolution dans le diméthylsulfoxyde et addition d'eau distillée dans le rapport 1 : 1O. Les solutions ultérieures ont été préparées par dilution avec de l'eau distillée ou avec le terrain minimum essential d'Eagle contenant 3 % de serum de veau.
# (§4) Les concentrations ont été exprimées en µg de substance active, calculée comme acide libre, par ml de milieu.
# [2] = system: Trichophyton rubrum; test: as above; format: cell-based; details: for nombre de souches sensibles aux concentrations suivantes (en µg/ml): 2 strains
# Text: as §1, §2, §3, §4
# [3] = system: Trichophyton mentagrophytes; test: as above; format: cell-based; details: for nombre de souches sensibles aux concentrations suivantes (en µg/ml): 4 strains
# Text: as §1, §2, §3, §4
# [4] = system: Escherichia coli; test: In vitro antibacterial activity, MIC (CMI) by agar dilution method; format: cell-based; details: 5 strains
# Text: as §1, §2, §3, §4
# (§5) Le tableau I montre l'activité antibactérienne in vitro du sel d'argent de formule I ci-dessus (Composé I) et de l'acide libre correspondant (Acide libre), exprimée par le nombre de souches sensibles aux produits testés à des concentrations de 3O à O,O1 µg/ml.
# [5] = system: Staphylococcus aureus (pen. rés.); test: as above; format: cell-based; details: 2 penicillin-resistant strains
# Text: as §1, §2, §3, §4, §5
# [6] = system: Streptococcus pyogenes; test: as above; format: cell-based; details: 4 strains
# Text: as §1, §2, §3, §4, §5
# [7] = system: Staphylococcus aureus; test: as above; format: cell-based; details: 4 strains
# Text: as §1, §2, §3, §4, §5
# [8] = system: Streptococcus faecalis; test: as above; format: cell-based; details: 2 strains
# Text: as §1, §2, §3, §4, §5
# [9] = system: Streptococcus epidermidis; test: as above; format: cell-based; details: 3 strains
# Text: as §1, §2, §3, §4, §5
# [10] = system: Pseudomonas aeruginosa; test: as above; format: cell-based; details: 4 strains
# Text: as §1, §2, §3, §4, §5
# [11] = Photosensitivity compared with other antibacterial silver salts; format: physicochemical; details: e.g. sel d'argent de la sulfadiazine, solid state and in solution
# [12] = compared with the corresponding free acid; from European patent 49593; cited from earlier work
compound,measurement,setting,value
"CCn1cc(C(=O)O)c(=O)c2cc(F)c(N3CCNCC3)nc21 [Acide libre, acide 1-éthyl-6-fluoro-1,4-dihydro-4-oxo-7-(1-pipérazinyl)-1,8-naphtyridine-3-carboxylique, reference compound]",MIC,"[1]; Candida albicans, same 5 strains as Table II, read-out: activité antifongique: inactif jusqu'à des concentrations de",> 1 µg/mL
same,MIC,"[2]; Trichophyton rubrum, same 2 strains as Table II, read-out: activité antifongique: inactif jusqu'à des concentrations de",> 1 µg/mL
same,MIC,"[3]; Trichophyton mentagrophytes, same 4 strains as Table II, read-out: activité antifongique: inactif jusqu'à des concentrations de",> 1 µg/mL
same,Nombre de souches sensibles aux concentrations suivantes (µg/ml),"[4]; 0,1 µg/ml (as free acid)",2
same,Nombre de souches sensibles aux concentrations suivantes (µg/ml),"[4]; 0,03 µg/ml (as free acid)",1
same,Nombre de souches sensibles aux concentrations suivantes (µg/ml),"[4]; 0,3 µg/ml (as free acid)",2
same,Nombre de souches sensibles aux concentrations suivantes (µg/ml),"[5]; 0,3 µg/ml (as free acid)",1
same,Nombre de souches sensibles aux concentrations suivantes (µg/ml),[5]; 1 µg/ml (as free acid),1
same,Nombre de souches sensibles aux concentrations suivantes (µg/ml),[6]; 1 µg/ml (as free acid),1
same,Nombre de souches sensibles aux concentrations suivantes (µg/ml),[6]; 3 µg/ml (as free acid),1
same,Nombre de souches sensibles aux concentrations suivantes (µg/ml),[6]; 10 µg/ml (as free acid),2
same,Nombre de souches sensibles aux concentrations suivantes (µg/ml),"[7]; 0,1 µg/ml (as free acid)",1
same,Nombre de souches sensibles aux concentrations suivantes (µg/ml),[7]; 1 µg/ml (as free acid),2
same,Nombre de souches sensibles aux concentrations suivantes (µg/ml),[8]; 10 µg/ml (as free acid),1
same,Nombre de souches sensibles aux concentrations suivantes (µg/ml),[8]; 30 µg/ml (as free acid),1
same,Nombre de souches sensibles aux concentrations suivantes (µg/ml),[9]; 3 µg/ml (as free acid),2
same,Nombre de souches sensibles aux concentrations suivantes (µg/ml),[9]; 10 µg/ml (as free acid),1
same,Nombre de souches sensibles aux concentrations suivantes (µg/ml),"[10]; 0,3 µg/ml (as free acid)",3
same,Nombre de souches sensibles aux concentrations suivantes (µg/ml),[10]; 1 µg/ml (as free acid),1
"sel d'argent de l'acide 1-éthyl-6-fluoro-1,4-dihydro-4-oxo-7-(1-pipérazinyl)-1,8-naphtyridine-3-carboxylique [Composé I]",nombre de souches sensibles aux concentrations suivantes (en µg/ml),[1]; 3 µg/ml (as free acid),1
same,nombre de souches sensibles aux concentrations suivantes (en µg/ml),[1]; 10 µg/ml (as free acid),3
same,nombre de souches sensibles aux concentrations suivantes (en µg/ml),[1]; 30 µg/ml (as free acid),1
same,nombre de souches sensibles aux concentrations suivantes (en µg/ml),[2]; 10 µg/ml (as free acid),1
same,nombre de souches sensibles aux concentrations suivantes (en µg/ml),[2]; 30 µg/ml (as free acid),1
same,nombre de souches sensibles aux concentrations suivantes (en µg/ml),[3]; 3 µg/ml (as free acid),1
same,nombre de souches sensibles aux concentrations suivantes (en µg/ml),[3]; 10 µg/ml (as free acid),2
same,nombre de souches sensibles aux concentrations suivantes (en µg/ml),[3]; 30 µg/ml (as free acid),1
same,photosensibilité,[11],moins photosensible
same,Nombre de souches sensibles aux concentrations suivantes (µg/ml),"[4]; 0,1 µg/ml (as free acid)",2
same,Nombre de souches sensibles aux concentrations suivantes (µg/ml),"[4]; 0,03 µg/ml (as free acid)",1
same,Nombre de souches sensibles aux concentrations suivantes (µg/ml),"[4]; 0,3 µg/ml (as free acid)",2
same,Nombre de souches sensibles aux concentrations suivantes (µg/ml),"[5]; 0,1 µg/ml (as free acid)",1
same,Nombre de souches sensibles aux concentrations suivantes (µg/ml),"[5]; 0,3 µg/ml (as free acid)",1
same,Nombre de souches sensibles aux concentrations suivantes (µg/ml),[6]; 1 µg/ml (as free acid),1
same,Nombre de souches sensibles aux concentrations suivantes (µg/ml),[6]; 3 µg/ml (as free acid),2
same,Nombre de souches sensibles aux concentrations suivantes (µg/ml),[6]; 10 µg/ml (as free acid),1
same,Nombre de souches sensibles aux concentrations suivantes (µg/ml),"[7]; 0,1 µg/ml (as free acid)",3
same,Nombre de souches sensibles aux concentrations suivantes (µg/ml),"[7]; 0,3 µg/ml (as free acid)",1
same,Nombre de souches sensibles aux concentrations suivantes (µg/ml),[8]; 1 µg/ml (as free acid),1
same,Nombre de souches sensibles aux concentrations suivantes (µg/ml),[8]; 3 µg/ml (as free acid),1
same,Nombre de souches sensibles aux concentrations suivantes (µg/ml),"[9]; 0,3 µg/ml (as free acid)",1
same,Nombre de souches sensibles aux concentrations suivantes (µg/ml),[9]; 1 µg/ml (as free acid),1
same,Nombre de souches sensibles aux concentrations suivantes (µg/ml),[9]; 3 µg/ml (as free acid),1
same,Nombre de souches sensibles aux concentrations suivantes (µg/ml),"[10]; 0,1 µg/ml (as free acid)",3
same,Nombre de souches sensibles aux concentrations suivantes (µg/ml),"[10]; 0,03 µg/ml (as free acid)",1
"sel d'argent de l'acide 1-éthyl-6-fluoro-1,4-dihydro-4-oxo-7-(1-pipérazinyl)-quinolinyl-3-carboxilique",activité antibactérienne,[12],du même ordre que celle de l'acide libre correspondant
